{
  "source": "patent US3943137A",
  "about": "“Acronycine derivatives” (University of Kansas Endowment Association, priority 1973, dated 1976)",
  "key": {"mouse neoplasms": {"test_system": "mouse neoplasms", "settings": "cited from earlier work"}, "Solubility": {"assay": "Solubility", "format": "physicochemical", "settings": "water"}, "[1]": {"settings": "intravenous; several instances; autopsy; cited from earlier work"}, "X-5563 myeloma": {"test_system": "X-5563 myeloma", "settings": "oral and subcutaneous routes; cited from earlier work"}, "adenocarcinoma 755": {"test_system": "adenocarcinoma 755", "settings": "oral and subcutaneous routes; cited from earlier work"}, "[2]": {"settings": "acronycine free base; cited from earlier work"}, "C-1498 leukemia": {"test_system": "C-1498 leukemia", "settings": "oral and subcutaneous routes; cited from earlier work"}, "[3]": {"settings": "subcutaneous; cited from earlier work"}},
  "note": "Like-named read-outs stand apart in the source and are kept apart here.",
  "data": [
    {"smiles": "COc1cc2c(c3c1c(=O)c1ccccc1n3C)C=CC(C)(C)O2", "note": "[acronycine]", "values": [
      {"measurement": "reduction in the size of tumors", "setting": "mouse neoplasms; aqueous suspension, Svoboda et al", "result": "significant reductions in the size of a number of tumors"},
      {"measurement": "activity in delayed therapy experiments", "setting": "mouse neoplasms; delayed therapy", "result": "significant activity in delayed therapy experiments"},
      {"measurement": "antitumor activity, intravenous", "setting": "mouse neoplasms; intravenous, free base", "result": "only minimum activity"},
      {"measurement": "effectiveness by routes of administration", "setting": "mouse neoplasms; various routes", "result": "effective by various routes of administration"},
      {"measurement": "tumors against which significant activity was demonstrated", "setting": "mouse neoplasms; wide range of dose levels, Svoboda laboratory", "result": "12 of 17"},
      {"measurement": "solubility (qualitative)", "setting": "Solubility; acetone, benzene, listed as base", "result": "soluble in acetone and benzene, insoluble in water"},
      {"measurement": "solubility", "setting": "Solubility; read-out: solubility in water", "result": "2 to 3", "unit": "µg/mL"},
      {"measurement": "blockage of the circulatory system", "setting": "[1]", "result": "blockage of the circulatory system was evidenced, autopsy revealing an actual aortic block by the compound itself"},
      {"measurement": "activity against X-5563 myeloma", "setting": "X-5563 myeloma", "result": "significant activity"},
      {"measurement": "activity against adenocarcinoma 755", "setting": "adenocarcinoma 755", "result": "significant activity"},
      {"measurement": "solubility", "setting": "[2]", "result": "2 to 3", "unit": "µg/mL"},
      {"measurement": "activity against C-1498 leukemia", "setting": "C-1498 leukemia", "result": "significant activity"},
      {"measurement": "skin irritation or alopecia", "setting": "[3]", "result": "no evidence of skin irritation or alopecia"}
    ]}
  ]
}
